# From patent US10668108B2, “Compositions and methods of treating liver disease” (Children's Hospital Medical Center, priority 2016, dated 2020)
# “Also recorded” adds a separate entry of the source.
# How the values were obtained:
# HLO [1] = experiment: HLO survival assay, Intralipid exposed HLO (PNALD model); assay type: cell-based; details: added to 400 μM Intralipid exposed HLO (PNALD-HLO); FGF19 40 ng/ml
# Text: PNALD is an iatrogenic fatty liver disease which occurs frequently in infants provided with parental nutrition (PN) solutions employing a lipid emulsion (Intralipid) that provide life-sustaining calories in the setting of inadequate absorption of enteral nutrients (Kumar and Teckman, 2015; Orso et al., 2016). PNALD has a histological evidence of steatosis, cell death (apoptosis), and fibrosis (Nandivada et al., 2013). To recapitulate PNALD pathology in HLO, we reconstituted components of Intralipid and placed it directly into HLO culture.
# […]; Kumar and Teckman, 2015; Neuschwander-Tetri et al., 2015). To implicate the therapeutic significance of OCA and FGF19 for PNALD like pathology in HLO, OCA and FGF19 were added to 400 μM Intralipid exposed HLO. […] Mechanistically, the accumulation of reactive oxygen species (ROS) is strongly associated with the fatty liver related hepatocyte death (Nandivada et al., 2013; Tsedensodnom and Sadler, 2013). We thus wondered whether OCA and FGF19 would inhibit the production of ROS so we sought to confirm that theory with live-cell imaging with CellROX dye. […]. […]
# HLO survival assay. […] HLO were captured on The KEYENCE BZ-X710 Fluorescence Microscope every day. The surviving and dead organoids were counted manually from the photo. HLO with a rounded configuration was counted as the surviving while the organoids with out of shape is counted as dead. […]
# HLO [2] = experiment: ROS live-cell imaging with CellROX dye in HLO; assay type: cell-based, human; details: for ROS production: 400 μM Intralipid treated HLO, live-cell imaging, CellROX
# Text: Because there are no established ameliorative strategies, and PNALD is the leading indication for liver transplantation in infants (El Kasmi et al., 2013), we further investigated preventive and therapeutic effects of FXR agonist obeticholic acid (OCA) and FGF19 hormone that are activated by OCA, which have shown great potential in nonalcoholic steatohepatitis treatment (Dash et al., 2017; Kumar and Teckman, 2015; Neuschwander-Tetri et al., 2015). To implicate the therapeutic significance of OCA and FGF19 for PNALD like pathology in HLO, OCA and FGF19 were added to 400 μM Intralipid exposed HLO. […] Mechanistically, the accumulation of reactive oxygen species (ROS) is strongly associated with the fatty liver related hepatocyte death (Nandivada et al., 2013; Tsedensodnom and Sadler, 2013). We thus wondered whether OCA and FGF19 would inhibit the production of ROS so we sought to confirm that theory with live-cell imaging with CellROX dye.
# Phagocyte, lipids, ROS live-cell imaging. After being cultured in an ultra-low attachment 6 multi-well plate, 5-10 HLO were picked up and seeded in a Microslide 8 Well Glass Bottom plate (Ibidi, WI, USA) and subjected to live-cell staining. The following antibodies were used: pHrodo® Red S. aureus Bioparticles® Conjugate for Phagocyte activity (Thermo Fisher Scientific Inc.), BODIPY® 493/503 for lipids (Thermo Fisher Scientific Inc.), Di-8-ANEPPS for membrane (Thermo Fisher Scientific Inc.), and CellROX green reagent for ROS detection (Thermo Fisher Scientific Inc.). Nuclear staining was marked by NucBlue Live ReadyProbes Reagent (Thermo Fisher Scientific Inc.). […] The final lipid droplet volume was calculated by IMARIS8 and normalized by each organoid size. Significance testing for lipid droplet volume and ROS production (%) was conducted by Student's t-test.
# HLO [3] = experiment: HLO survival, 800 μM OA treated HLO (3D cell titer glo); assay type: cell-based, human; details: 800 μM OA + FGF19 40 ng/ml, same time point
# Protocol: LPS and FFA exposure and OCA and FGF19 treatment. 20-30 hLOHLO, which had been isolated from Matrigel and washed by 1×PBS, were divided into each condition and cultured on an ultra-low attachment 6 multi-well plates (Corning). HLO were cultured with LPS (Sigma), OA (Sigma), LA (Sigma), SA (Sigma), or PA (Sigma) and collected at day 1 and 3 (for LPS HLO) and at day 3 and 5 (for OA) after the culture. To test the inhibitory effect of OCA (INT-747, MedChem Express, NJ, USA) and human FGF19 recombinant (Sigma) on HLO, 20-30 HLO were cultured in HCM media in the presence or absence of oleic acid (800 μM), and 1 μM OCA and 40 ng/ml FGF19 were added into 800 μM OA condition. HLO were collected at day 3 for lipids live-cell imaging and at day 5 for stiffness measurement.
# HLO survival assay. HLO were collected from Matrigel and washed by 1×PBS. 30-40 organoids were cultured on an ultra-low attachment 6 multi-well plate (Corning). HLO were captured on The KEYENCE BZ-X710 Fluorescence Microscope every day. The surviving and dead organoids were counted manually from the photo. HLO with a rounded configuration was counted as the surviving while the organoids with out of shape is counted as dead. To assess the survival rate of OA treated HLO at the same time point, 3D cell titer glo assay was used (Promega, Wi, USA).
# HLO [4] = experiment: HLO stiffness measurement by AFM; assay type: cell-based, human
# Protocol: To further determine whether OCA and FGF19 have an impact on fibrosis, HLO stiffness was assessed. Organoid damage induced by Intralipid is extremely significant and treated HLOs for 5 days are not able to be stabilized on a dish, which is a minimal requirement for assessing the rigidity by AFM. To circumvent this limitation, the stiffness was assessed at Day3.
# LPS and FFA exposure and OCA and FGF19 treatment. 20-30 hLOHLO, which had been isolated from Matrigel and washed by 1×PBS, were divided into each condition and cultured on an ultra-low attachment 6 multi-well plates (Corning). […]
# HLO stiffness measurement by AFM. […] The AFM head with a silicon nitride cantilever (CSC37, k=0.3 N/m, MikroMasch, Bulgaria) was mounted on a fluorescence stereo microscope (M205 FA, Leica, Germany) coupled with a Z-axis piezo stage (JPK CellHesion module, JPK Instruments, Germany), which allows the indentation measurement up to the depth of ˜100 μm. […] The sample dish was then placed onto the AFM stage, and force-distance curves in a 14×14 matrix in a 25×25 μm square were measured from each HLO. Finally, Young's moduli (E, Pa) of HLOs were determined by fitting the obtained force-distance curves with the modified Hertz model (Sneddon, 1965). […]
Molecule,number of surviving organoids (HLO [1]),ROS production (HLO [2]),survival of 800 μM OA HLO (HLO [3]),"effect on ROS production caused by 400 μM Int (HLO [2]; 400 μM Intralipid, FGF19 40 ng/ml)",stiffness of OA treated HLO (AFM) (HLO [4]; 800 μM OA + FGF19 40 ng/ml),"progression of fibrosis (HLO stiffness) (HLO [4]; Intralipid treated HLO, stiffness assessed at Day3)"
"CC[C@H]1[C@@H](O)[C@@H]2[C@H](CC[C@]3(C)[C@@H]([C@H](C)CCC(=O)O)CC[C@@H]23)[C@@]2(C)CC[C@@H](O)C[C@@H]12 [OCA, obeticholic acid, reference compound]",around 83%,20%,,,,
FGF19: human FGF19 recombinant (Sigma); hormone activated by OCA,~78%,30%,significantly improved,inhibit the ROS production,significantly softened; also recorded: decreased,reduce the progression of fibrosis
